Numbers after ± are expanded uncertainties.
Assays:
[1] = refractive index (Na D-line) (dimensionless); details: 303.1 K; 101.33 kPa; Liquid; Standard Abbe refractometry

Structure (SMILES): CN(CCO)CCO [N-methyldiethanolamine]
- mass density (298.1 K, 101.33 kPa, Liquid, Vibrating tube method): 1038.11 ± 0.92 kg/m3
- viscosity (298.15 K, 101.33 kPa, Liquid, Capillary tube (Ostwald / Ubbelohde) method): 77.09 ± 1.8 mPa·s
- surface tension liquid-gas (303.15 K, Pendant drop shape): 38.26 ± 0.53 mN/m
- refractive index [1]: 1.46008 ± 0.00051
